Key:
rabbit [1] = settings: Prenatal developmental toxicity study, himalayan, Oral, Gavage/Intubation, dose end: 27 GD
rat [2] = settings: Prenatal developmental toxicity study, sprague dawley, Oral, Gavage/Intubation, dose end: 15 GD
rat [3] = settings: Combined chronic toxicity/carcinogenicity, sprague dawley, Oral, Feed, dose end: 106 week
rat [4] = settings: Prenatal developmental toxicity study, sprague dawley, Oral, Gavage/Intubation, dose end: 15 GD; remark: listed apart in the source
rat [5] = settings: Multigenerational reproductive toxicity study, wistar, Oral, Feed, dose end: 2 generation
rat [6] = settings: Prenatal developmental toxicity study, sprague dawley albino, Oral, Gavage/Intubation, dose end: 19 GD
rat [7] = settings: Peri- and post-natal toxicity study (Segment III), wistar, Oral, Gavage/Intubation, dose end: 21 PND
rat [8] = settings: Multigenerational reproductive toxicity study, wistar, Oral, Gavage/Intubation, dose end: 1 generation
mouse [9] = settings: Multigenerational reproductive toxicity study, cd1, Oral, Water, dose end: 1 generation
mouse [10] = settings: Prenatal developmental toxicity study, cd1, Oral, Gavage/Intubation, dose end: 15 GD
rabbit [11] = settings: Prenatal developmental toxicity study, new zealand white, Oral, Gavage/Intubation, dose end: 19 GD
[12] = group: developmental, developmental / developmental malformation / bone / [other] + developmental / developmental malformation / bone / fused + developmental / …
[13] = group: maternal, reproductive / reproductive performance / postimplantation loss / postimplantation loss + systemic / in life observation / body weight / …
[14] = group: developmental, developmental / developmental malformation / trunk / ecchymosis
[15] = group: developmental, developmental / developmental malformation / trunk / ecchymosis + developmental / developmental malformation / bone / incomplete …
[16] = group: maternal, systemic / in life observation / body weight / body weight gain + systemic / in life observation / food consumption / food consumption
[17] = group: maternal, systemic / in life observation / body weight / body weight gain + systemic / in life observation / food consumption / food consumption + …
[18] = group: cholinesterase, cholinesterase / cholinesterase / cholinesterase / erythrocyte cholinesterase (che) + cholinesterase / cholinesterase / cholinesterase / …
[19] = group: systemic, systemic / in life observation / body weight / body weight + systemic / in life observation / body weight / body weight gain + systemic / in…
[20] = group: developmental, developmental / developmental malformation / bone / absent + developmental / developmental malformation / bone / supernumerary
[21] = group: developmental, developmental / developmental malformation / bone / absent + developmental / developmental malformation / bone / supernumerary + systemic / …
[22] = group: maternal, systemic / in life observation / body weight / body weight gain
[23] = group: maternal, systemic / in life observation / body weight / body weight gain + systemic / in life observation / clinical signs / salivation + systemic / …
[24] = group: offspring, systemic / organ weight / liver / absolute + systemic / organ weight / liver / nos + systemic / organ weight / epididymis / absolute + …
[25] = group: offspring, systemic / organ weight / testes / nos
[26] = group: parental, systemic / organ weight / testes / absolute
[27] = group: parental, systemic / organ weight / testes / absolute + systemic / organ weight / liver / nos + systemic / organ weight / testes / nos + systemic / …
[28] = group: reproductive, reproductive / reproductive performance / fertility / fertility
[29] = group: developmental, developmental / developmental landmark / anogenital distance (agd) / anogenital distance (agd)
[30] = group: offspring, systemic / in life observation / body weight / offspring (pup) weight gain
[31] = group: parental, systemic / in life observation / body weight / body weight gain + systemic / in life observation / food consumption / food consumption
[32] = group: reproductive, reproductive / offspring survival early / dead fetuses / dead fetuses
[33] = group: offspring, systemic / in life observation / body weight / offspring (pup) weight
[34] = group: parental, systemic / organ weight / liver / absolute + systemic / organ weight / liver / relative to body weight + systemic / organ weight / pituitary…
[35] = group: reproductive, reproductive / reproductive performance / reproductive performance other / NOS + reproductive / reproductive performance / gestational …
[36] = group: developmental, developmental / developmental malformation / bone / exencephaly + developmental / developmental malformation / bone / fused + developmental…
[37] = group: maternal, systemic / organ weight / liver / relative to body weight
[38] = group: developmental, developmental / developmental malformation / general / local edema + developmental / developmental malformation / great vessels / persistent…
[39] = group: maternal, reproductive / reproductive performance / preimplantation loss / preimplantation loss + reproductive / reproductive performance / …

CCCCCCCCCCCCCC[N+](C)(C)CCC[Si](OC)(OC)OC.[Cl-]
LEL (rabbit [1]; [12]): 180 mg/kg/day
LOAEL (rabbit [1]; [12]): > 180 mg/kg/day
NEL (rabbit [1]; [12]): 90 mg/kg/day
NOAEL (rabbit [1]; [12]): ≥ 180 mg/kg/day
LEL (rabbit [1]; [13]): 180 mg/kg/day
LOAEL (rabbit [1]; [13]): > 180 mg/kg/day
NEL (rabbit [1]; [13]): 90 mg/kg/day
NOAEL (rabbit [1]; [13]): ≥ 180 mg/kg/day

CNC(=O)O/N=C/C(C)(C)SC [Aldicarb]
LEL (rat [2]; [14]): 0.25 mg/kg/day
LOAEL (rat [2]; [14]): 0.25 mg/kg/day
NEL (rat [2]; [15]): 0.125 mg/kg/day
NOAEL (rat [2]; [15]): 0.125 mg/kg/day
LEL (rat [2]; [16]): 0.25 mg/kg/day
LOAEL (rat [2]; [16]): 0.25 mg/kg/day
NEL (rat [2]; [17]): 0.125 mg/kg/day
NOAEL (rat [2]; [17]): 0.125 mg/kg/day
LEL (rat [3]; [18]): 0.47 mg/kg/day
LOAEL (rat [3]; [18]): 0.47 mg/kg/day
NEL (rat [3]; [18]): 0.047 mg/kg/day
NOAEL (rat [3]; [18]): 0.047 mg/kg/day
LEL (rat [3]; [19]): 1.44 mg/kg/day
LOAEL (rat [3]; [19]): > 1.44 mg/kg/day
NEL (rat [3]; [19]): 0.47 mg/kg/day
NOAEL (rat [3]; [19]): ≥ 1.44 mg/kg/day

C=C(C)C1CC=C(C)CC1 (stereo unspecified) [Limonene]
LEL (rat [4]; [20]): 500 mg/kg/day
LOAEL (rat [4]; [20]): 500 mg/kg/day
NEL (rat [4]; [21]): 250 mg/kg/day
NOAEL (rat [4]; [21]): 250 mg/kg/day
LEL (rat [4]; [22]): 500 mg/kg/day
LOAEL (rat [4]; [22]): 500 mg/kg/day
NEL (rat [4]; [23]): 250 mg/kg/day
NOAEL (rat [4]; [23]): 250 mg/kg/day

CC12CC1(C)C(=O)N(c1cc(Cl)cc(Cl)c1)C2=O (stereo unspecified) [Procymidone]
LOAEL (rat [5]; [24]): > 77.8 mg/kg/day
NOAEL (rat [5]; [24]): ≥ 77.8 mg/kg/day
LEL (rat [5]; [25]): 5.35 mg/kg/day
NEL (rat [5]; [25]): < 5.35 mg/kg/day
LEL (rat [5]; [26]): 22.7 mg/kg/day
LOAEL (rat [5]; [26]): 22.7 mg/kg/day
NEL (rat [5]; [27]): 4.52 mg/kg/day
NOAEL (rat [5]; [27]): 4.52 mg/kg/day
LEL (rat [5]; [28]): 73.2 mg/kg/day
LOAEL (rat [5]; [28]): 73.2 mg/kg/day
NEL (rat [5]; [28]): 24.1 mg/kg/day
NOAEL (rat [5]; [28]): 24.1 mg/kg/day
LEL (rat [6]; [29]): 12.5 mg/kg/day
LOAEL (rat [6]; [29]): 12.5 mg/kg/day
NEL (rat [6]; [29]): 3.5 mg/kg/day
NOAEL (rat [6]; [29]): 3.5 mg/kg/day
LOAEL (rat [6]; [16]): 125 mg/kg/day
LEL (rat [6]; [17]): 125 mg/kg/day
NEL (rat [6]; [17]): 12.5 mg/kg/day
NOAEL (rat [6]; [17]): 12.5 mg/kg/day

CCOCC(O)COc1ccc(NC(=O)CC[S+](C)C)cc1.Cc1ccc(S(=O)(=O)[O-])cc1 (stereo unspecified) [Suplatast tosylate]
LEL (rat [7]; [30]): 1800 mg/kg/day
LOAEL (rat [7]; [30]): > 1800 mg/kg/day
NEL (rat [7]; [30]): 600 mg/kg/day
NOAEL (rat [7]; [30]): ≥ 1800 mg/kg/day
LEL (rat [7]; [31]): 1800 mg/kg/day
LOAEL (rat [7]; [31]): > 1800 mg/kg/day
NEL (rat [7]; [31]): 600 mg/kg/day
NOAEL (rat [7]; [31]): ≥ 1800 mg/kg/day
LEL (rat [8]; [31]): 1800 mg/kg/day
LOAEL (rat [8]; [31]): > 1800 mg/kg/day
NEL (rat [8]; [31]): 600 mg/kg/day
NOAEL (rat [8]; [31]): ≥ 1800 mg/kg/day
LEL (rat [8]; [32]): 1800 mg/kg/day
LOAEL (rat [8]; [32]): > 1800 mg/kg/day
NEL (rat [8]; [32]): 600 mg/kg/day
NOAEL (rat [8]; [32]): ≥ 1800 mg/kg/day

COCCOCCOCCOC [Triethylene glycol dimethyl ether]
LEL (mouse [9]; [33]): 87.5 mg/kg/day
LOAEL (mouse [9]; [33]): > 175 mg/kg/day
NEL (mouse [9]; [33]): 43.8 mg/kg/day
NOAEL (mouse [9]; [33]): ≥ 175 mg/kg/day
LEL (mouse [9]; [34]): 175 mg/kg/day
LOAEL (mouse [9]; [34]): > 175 mg/kg/day
NEL (mouse [9]; [34]): 87.5 mg/kg/day
NOAEL (mouse [9]; [34]): ≥ 175 mg/kg/day
LEL (mouse [9]; group: reproductive, reproductive / reproductive performance / gestational length / gestational length): 87.5 mg/kg/day
LOAEL (mouse [9]; [35]): > 175 mg/kg/day
NEL (mouse [9]; [35]): 43.8 mg/kg/day
NOAEL (mouse [9]; [35]): ≥ 175 mg/kg/day
LOAEL (mouse [10]; [36]): > 1000 mg/kg/day
NEL (mouse [10]; [36]): 250 mg/kg/day
NOAEL (mouse [10]; [36]): ≥ 1000 mg/kg/day
LEL (mouse [10]; group: developmental, systemic / in life observation / body weight / fetal weight): 500 mg/kg/day
LEL (mouse [10]; [37]): 500 mg/kg/day
LOAEL (mouse [10]; [37]): > 1000 mg/kg/day
NEL (mouse [10]; [37]): 250 mg/kg/day
NOAEL (mouse [10]; [37]): ≥ 1000 mg/kg/day
LOAEL (rabbit [11]; [38]): > 250 mg/kg/day
NEL (rabbit [11]; [38]): 75 mg/kg/day
NOAEL (rabbit [11]; [38]): ≥ 250 mg/kg/day
LEL (rabbit [11]; group: developmental, developmental / developmental malformation / spleen / small): 125 mg/kg/day
LOAEL (rabbit [11]; [39]): > 250 mg/kg/day
NEL (rabbit [11]; [39]): 125 mg/kg/day
NOAEL (rabbit [11]; [39]): ≥ 250 mg/kg/day
LEL (rabbit [11]; [22]): 175 mg/kg/day

Reference: EPA's ToxRefDB 2
